Results reported in paper PMC5784920, “Inhibition of α-glucosidase, α-amylase, and aldose reductase by potato polyphenolic compounds” (PLoS ONE, 2018).

How the values were obtained:
α-glucosidase = test system: T1, α-glucosidase; assay: p-nitrophenol release at […] nm, Lineweaver-Burk; assay type: biochemical; details: pH 6.5 phosphate; no inhibitor
T1 construct: gene MAL12; introduction speaks of intestinal enzyme

O=C[C@H](O)CO = assay: purified protein; details: NADPH cofactor; no inhibitor; varied substrate taken as glyceraldehyde (D/L not told)

Row | Compound | Km (α-glucosidase) | Km (O=C[C@H](O)CO)
1 | O=[N+]([O-])c1ccc(O[C@H]2O[C@H](CO)[C@@H](O)[C@H](O)[C@H]2O)cc1 [PNPG] | 4.44 mM | –
2 | aldose reductase (AR) (Homo sapiens) | – | 3.03 mM
